The experiment addresses butyrylcholinesterase (BuChE). The experiment is described as follows: modified Ellman photometric anti-cholinesterase assay. It is filed as biochemical. On the technique in general: Ellman's reagent forms a yellow product with free thiols.

As usually defined, the IC50 is the concentration that gives 50% inhibition. On to `CCC[C@H](O)CCCCCC[C@H]1CCC[C@@H]2N[C@H](C)[C@H](OC(=O)/C=C/SC)C[C@H]12` [compound 1, lepadin I], for which the IC50 amounted to 3.1 µM.

The values are drawn from article PMC6486817 (The Journal of organic chemistry, 2018).
